Test results from ChEMBL document CHEMBL1143372, “Synthesis of Pro-Xylane: a new biologically active C-glycoside in aqueous media” (2009).

Columns and labels:
Assay type in all cases: functional, Homo sapiens
NHDF [1] = experiment: Antiaging activity in NHDF assessed as D-[6-H3]-glucosamine incorporation into glycosaminoglycan fraction at 10 mM after 72 hrs relative to control
NHDF [2] = experiment: Antiaging activity in NHDF assessed as D-[6-H3]-glucosamine incorporation into glycosaminoglycan fraction at 0.4 mM after 72 hrs relative to control
NHDF [3] = experiment: Antiaging activity in NHDF assessed as D-[6-H3]-glucosamine incorporation into glycosaminoglycan fraction at 2 mM after 72 hrs relative to control
NHDF [4] = experiment: Antiaging activity in NHDF assessed as D-[6-H3]-glucosamine incorporation into glycosaminoglycan fraction at 3 mM after 72 hrs relative to control
NHDF [5] = experiment: Antiaging activity in NHDF assessed as D-[6-H3]-glucosamine incorporation into glycosaminoglycan fraction at 1 mM after 72 hrs relative to control
NHDF [6] = experiment: Antiaging activity in NHDF assessed as D-[6-H3]-glucosamine incorporation into glycosaminoglycan fraction at 0.3 mM after 72 hrs relative to control
NHDF [7] = experiment: Antiaging activity in NHDF assessed as D-[6-H3]-glucosamine incorporation into glycosaminoglycan fraction at 0.1 mM after 72 hrs relative to control
NHDF [8] = experiment: Antiaging activity in NHDF assessed as D-[6-H3]-glucosamine incorporation into glycosaminoglycan fraction at 0.08 mM after 72 hrs relative to control
NHDF [9] = experiment: Antiaging activity in NHDF assessed as D-[6-H3]-glucosamine incorporation into glycosaminoglycan fraction at 0.5 mM after 72 hrs relative to control
NHDF [10] = experiment: Antiaging activity in NHDF assessed as D-[6-H3]-glucosamine incorporation into glycosaminoglycan fraction at 0.02 mM after 72 hrs relative to control

## CC(=O)C[C@@H]1OC[C@@H](O)[C@H](O)[C@H]1O
NHDF [1]
  Activity: 161%
NHDF [2]
  Activity: 110%
NHDF [3]
  Activity: 141%

## CC(=O)C[C@@H]1O[C@H](CO)[C@H](O)[C@H](O)[C@H]1O
NHDF [1]
  Activity: 99%
NHDF [4]
  Activity: 119%
NHDF [5]
  Activity: 136%

## CC(O)C[C@@H]1OC[C@@H](O)[C@H](O)[C@H]1O (stereo partly drawn)
NHDF [6]
  Activity: 139%
NHDF [4]
  Activity: 218%
NHDF [5]
  Activity: 169%

## O=C(C[C@@H]1OC[C@@H](O)[C@H](O)[C@H]1O)c1ccccc1
NHDF [6]
  Activity: 102%
NHDF [7]
  Activity: 120%
NHDF [5]
  Activity: 95%

## O[C@@H]1[C@H](O)[C@@H](O)OC[C@H]1O [LYXOSE]
NHDF [8]
  Activity: 90%
NHDF [2]
  Activity: 102%
NHDF [3]
  Activity: 86%

## O=C[C@H](O)[C@@H](O)[C@H](O)CO [XYLOSE]
NHDF [7]
  Activity: 85%
NHDF [9]
  Activity: 52%
NHDF [10]
  Activity: 106%
